Series [1] addresses T1, UGT1A1 (Homo sapiens, UniProt P22309).
T1 sequence (P22309 26-533): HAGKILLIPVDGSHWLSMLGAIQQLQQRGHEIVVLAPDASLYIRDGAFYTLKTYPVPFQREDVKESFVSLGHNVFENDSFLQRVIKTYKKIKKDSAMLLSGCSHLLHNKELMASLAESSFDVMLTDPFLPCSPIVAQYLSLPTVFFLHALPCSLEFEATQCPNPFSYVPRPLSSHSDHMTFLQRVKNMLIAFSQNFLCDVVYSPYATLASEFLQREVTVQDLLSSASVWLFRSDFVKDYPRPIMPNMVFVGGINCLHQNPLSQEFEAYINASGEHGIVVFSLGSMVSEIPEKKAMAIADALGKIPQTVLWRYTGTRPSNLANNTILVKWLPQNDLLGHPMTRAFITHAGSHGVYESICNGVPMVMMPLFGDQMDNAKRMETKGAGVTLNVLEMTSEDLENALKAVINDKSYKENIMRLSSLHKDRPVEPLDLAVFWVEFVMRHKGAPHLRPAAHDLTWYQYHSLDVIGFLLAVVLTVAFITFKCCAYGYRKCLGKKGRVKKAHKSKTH
As to conditions: pH 7.4.

Series [2] addresses T2, UGT1A3 (Homo sapiens, UniProt P35503).
T2 sequence (P35503 29-534): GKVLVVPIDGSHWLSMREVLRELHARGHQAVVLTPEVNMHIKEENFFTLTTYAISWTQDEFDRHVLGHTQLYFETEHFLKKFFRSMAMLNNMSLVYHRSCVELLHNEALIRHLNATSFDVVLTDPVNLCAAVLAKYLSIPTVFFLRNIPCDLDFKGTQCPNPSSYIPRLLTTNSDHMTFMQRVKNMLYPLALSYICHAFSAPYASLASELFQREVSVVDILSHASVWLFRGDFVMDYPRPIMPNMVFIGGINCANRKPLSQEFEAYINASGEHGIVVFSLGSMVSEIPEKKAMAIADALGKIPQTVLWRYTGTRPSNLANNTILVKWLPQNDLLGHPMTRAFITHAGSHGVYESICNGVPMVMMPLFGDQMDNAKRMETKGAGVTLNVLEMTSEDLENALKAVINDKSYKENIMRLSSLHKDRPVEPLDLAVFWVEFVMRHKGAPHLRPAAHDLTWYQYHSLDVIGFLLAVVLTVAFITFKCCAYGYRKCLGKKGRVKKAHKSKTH
As to conditions: pH 7.4.

The target in series [3] is T3, UGT1A9 (Homo sapiens, UniProt O60656).
T3 sequence (O60656 26-530): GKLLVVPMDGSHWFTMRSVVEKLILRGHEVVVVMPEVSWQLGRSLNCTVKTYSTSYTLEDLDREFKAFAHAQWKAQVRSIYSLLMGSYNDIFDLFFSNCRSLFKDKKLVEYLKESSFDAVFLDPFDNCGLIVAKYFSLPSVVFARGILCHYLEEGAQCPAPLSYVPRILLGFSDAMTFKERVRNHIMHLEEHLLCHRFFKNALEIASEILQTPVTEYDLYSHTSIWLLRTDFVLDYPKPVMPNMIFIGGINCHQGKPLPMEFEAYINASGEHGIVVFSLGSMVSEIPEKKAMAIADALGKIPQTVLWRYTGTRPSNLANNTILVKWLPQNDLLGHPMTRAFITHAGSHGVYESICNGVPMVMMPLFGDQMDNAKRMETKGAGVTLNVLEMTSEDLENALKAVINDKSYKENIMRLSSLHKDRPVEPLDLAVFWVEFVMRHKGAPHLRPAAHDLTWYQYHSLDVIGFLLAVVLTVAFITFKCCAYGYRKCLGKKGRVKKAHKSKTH
The following applies: pH 7.4.

The subject of series [4] is UGT 1A1, 1A3, 1A6, 1A7, 1A8, 1A9, 1A10 and 2B7. As to conditions: human, 10 μM, pH 7.4.
For series [5] the following is noted: bioavailability studies in humans; cited from earlier work.
Series [6] deals with T3, UGT1A9. The following applies: cited from earlier work.

Each structure is given as a SMILES string. Like-named read-outs stand apart in the source and are kept apart here.

Consider `O=c1cc(-c2ccc(O)cc2)oc2cc(O)cc(O)c12` [5,7,4'THF, 5,7,4’-trihydroxyflavone], for which the “Degree of regiospecificity (major glucuronide in bracket)” value in series [1] (2.5 μM), in series [1] (10 μM), in series [2] (2.5 μM), in series [2] (10 μM), in series [3] (2.5 μM) and in series [3] (10 μM) was “Dominant (7-O)” each time. For the same compound, the “Glucuronidation and regiospecificity across the 8 UGT isoforms” value in series [4] is “all isoforms showed dominant regiospecific glucuronidation of hydroxyl group at C-7 position only”.

Consider `O=c1c(O)c(-c2ccc(O)c(O)c2)oc2cc(O)cc(O)c12` [quercetin, 3,5,7,3’-4’-pentahydroxyflavone], for which the Main glucuronide found in series [5] is 3-O-glucuronide of quercetin was also the main glucuronide. The “Catalytic efficiency order for regiospecific glucuronidation” value in series [6] is on record as 3- > 7- > 3′- > 4′-O-glucuronide.
